Laboratory results as given in PubChem BioAssay (NCI).
“And” between values parts separate entries of the source, which are not always exact repeats. Equal entries are not always repeated.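 Results reflect a 48-hour exposure of cells in 96-well plates to compound at five concentrations. The concentration for 50% growth inhibition is given as GI50. The concentration for full growth arrest is given as TGI.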

How the values were obtained:
Assay in all cases: NCI tumour cell line growth inhibition, 48 h
EKVX NSCLC = system: EKVX NSCLC
KM20L2 colon = system: KM20L2 colon
LXFL 529 NSCLC = system: LXFL 529 NSCLC
M14 melanoma = system: M14 melanoma
NCI-H23 lung = system: NCI-H23 lung
RXF 393 renal = system: RXF 393 renal
SF-268 CNS = system: SF-268 CNS
SN12C renal = system: SN12C renal
SNB-78 CNS = system: SNB-78 CNS
SR leukemia = system: SR leukemia
MDA-MB-435 = system: MDA-MB-435

| SMILES | TGI (EKVX NSCLC) | TGI (KM20L2 colon) | TGI (LXFL 529 NSCLC) | TGI (M14 melanoma) | TGI (NCI-H23 lung) | TGI (RXF 393 renal) | TGI (SF-268 CNS) | TGI (SN12C renal) | TGI (SNB-78 CNS) | TGI (SR leukemia) | GI50 (EKVX NSCLC) | GI50 (M14 melanoma) | GI50 (MDA-MB-435) | TGI (MDA-MB-435) | GI50 (NCI-H23 lung) | GI50 (RXF 393 renal) | GI50 (SF-268 CNS) | GI50 (SN12C renal) | GI50 (SR leukemia) | GI50 (KM20L2 colon) |
| --- | --- | --- | --- | --- | --- | --- | --- | --- | --- | --- | --- | --- | --- | --- | --- | --- | --- | --- | --- | --- |
| Cc1nn(C)c(=S)n(C)c1=O | 44.9 µM | > 100 µM | 54.6 µM | > 100 µM | 10.6 µM | 7.33 µM | > 100 µM | 43.4 µM | > 100 µM | – | – | – | – | – | – | – | – | – | – | – |
| COC(=O)c1ccccc1N=Cc1ccc(N(CCC#N)S(=O)(=O)c2ccccc2)cc1 | > 100 µM | > 100 µM | > 100 µM | > 100 µM | > 100 µM | > 100 µM | > 100 µM | > 100 µM | > 100 µM | > 100 µM | – | – | – | – | – | – | – | – | – | – |
| COC(=O)C(=O)C(C#N)c1ccc(Cl)c(Cl)c1 (stereo unspecified) | > 100 µM | > 100 µM | > 100 µM | > 100 µM | > 100 µM | – | > 100 µM | > 100 µM | > 100 µM | > 100 µM | – | – | – | – | – | – | – | – | – | – |
| COc1ccc(/C=C/C(C(=O)O)C(=O)O)cc1 | > 100 µM | > 100 µM | > 100 µM | > 100 µM | > 100 µM | – | > 100 µM | > 100 µM | > 100 µM | > 100 µM | – | – | – | – | – | – | – | – | – | – |
| CN(Cc1ccccc1)C1(N(C)Cc2ccccc2)CC1 | > 100 µM | > 100 µM | > 100 µM | > 100 µM | > 100 µM | > 100 µM | > 100 µM | > 100 µM | > 100 µM | – | – | – | – | – | – | – | – | – | – | – |
| COc1ccc(CCC2NCCc3cc(OC)c(OC)cc32)cc1 (stereo unspecified) | > 100 µM | > 100 µM | > 100 µM | > 100 µM | > 100 µM | – | > 100 µM | > 100 µM | > 100 µM | – | – | – | – | – | – | – | – | – | – | – |
| N#Cc1nc(Nc2ccc([N+](=O)[O-])cc2)sc1N | > 100 µM | > 100 µM | > 100 µM | 66.8 µM | 20.5 µM | – | > 100 µM | > 74.6 µM | > 93 µM | 6.85 µM | – | – | – | – | – | – | – | – | – | – |
| CC1(C)CC[C@]2(C(=O)O)CC[C@]3(C)[C@H](CC[C@@H]4[C@@]5(C)CCC(=O)C(C)(C)[C@@H]5CC[C@]43C)[C@H]2[C@H]1OC(=O)C(F)(F)F | 30.5 µM | – | – | 27 µM | 28.6 µM | 23.8 µM | 33.6 µM | 24.8 µM | – | 33.8 µM | 14.5 µM | 8.34 µM | 10.6 µM | 26.9 µM | 11 µM | 11.1 µM | 15.3 µM | 11.5 µM | 3.75 µM | – |
| Cn1cnc([N+](=O)[O-])c1Sc1nnc(C(F)(F)F)n1C | > 100 µM | – | 27.8 µM | 37.2 µM | > 100 µM | – | > 100 µM | > 100 µM | > 100 µM | 45 µM | – | – | – | – | – | – | – | – | – | – |
| C=CCC(C)(C(=O)NCCC)C(=O)c1ccccc1O (stereo unspecified) | – | > 100 µM | > 100 µM | > 100 µM | – | > 100 µM | > 100 µM | > 100 µM | > 100 µM | > 100 µM | – | – | – | – | – | – | – | – | – | – |
| C1C[OH+]CC[OH+]CC[OH+]CC[OH+]CC[OH+]CC[OH+]1.[Cl-].[Ta+5] | – | > 100 µM | – | > 100 µM | > 100 µM | > 100 µM | > 100 µM | > 100 µM | – | – | – | > 100 µM | – | – | > 100 µM | > 100 µM | > 100 µM | > 100 µM | – | > 100 µM |
| O=C1C=C(Nc2nc(C(=O)O)cc(=O)[nH]2)c2ccccc2C1=O | > 100 µM | – | – | > 100 µM | > 100 µM | > 100 µM | > 100 µM | > 100 µM | – | > 100 µM | – | – | – | > 100 µM | – | – | – | – | – | – |
| O=C1C(=O)c2c(nc3ncccn23)-c2ccccc21 | 0.954 µM | – | – | 0.343 µM | 0.432 µM | 0.967 µM | 1.13 µM | 0.325 µM | – | – | 0.396 µM | 0.182 µM | 0.114 µM | 0.254 µM | 0.193 µM | 0.497 µM | 0.339 µM | 0.173 µM | 0.315 µM | – |
| Cc1ccc(-n2c(-c3ccc(Cl)cc3)cs/c2=N\NC(=O)COc2n[nH]c(=O)c3ccccc23)cc1 | > 100 µM | – | – | > 100 µM | > 100 µM | > 100 µM | > 100 µM | > 100 µM | – | > 100 µM | 59.6 µM | > 100 µM | > 100 µM | > 100 µM | 34.1 µM | 30.8 µM | 32.9 µM | 78.1 µM | > 100 µM | – |
| CC1=N/C(=C\c2cccc3ccccc23)C(=O)O1 | > 100 µM | > 100 µM | > 100 µM | > 100 µM | > 100 µM | > 100 µM | > 100 µM | > 100 µM | > 100 µM | – | – | – | – | – | – | – | – | – | – | – |
| Cc1cccc(N2C(=O)C(=O)C(c3nc4ccccc4s3)C(=O)C2=O)c1C | > 100 µM | > 100 µM | > 100 µM | > 100 µM | > 100 µM | – | > 100 µM | > 100 µM | > 100 µM | > 100 µM | – | – | – | – | – | – | – | – | – | – |
| OC(C(=Nc1ccccc1)c1ccccc1)c1ccccc1 (stereo unspecified) | 9.35 µM | – | – | 39.1 µM | 40.4 µM | 26.1 µM | 17.4 µM | 25.3 µM | – | 10.7 µM | – | – | – | 11.8 µM | – | – | – | – | – | – |
| COc1ccc2sc3c(NCCCNCCO)nc4ccccc4c3c(=O)c2c1 | 2.94 µM | – | – | 3.48 µM | 3.27 µM | 2.7 µM | 3.16 µM | 3.12 µM | – | 5.61 µM | 1.45 µM | 1.82 µM | 1.61 µM | 3.01 µM | 1.73 µM | 1.31 µM | 1.52 µM | 1.6 µM | 1.97 µM | – |
| N#CC(=S)Nc1ccc(F)cc1 | > 100 µM | – | – | > 100 µM | > 100 µM | > 100 µM | > 100 µM | > 100 µM | – | > 100 µM | – | – | – | > 100 µM | – | – | – | – | – | – |
| O=[N+]([O-])c1ccc(O)c2ncccc12 | > 100 µM and 17.9 µM | – | – | > 100 µM and 10.5 µM | > 100 µM and 28.9 µM | > 100 µM and 18.2 µM | > 100 µM and 16 µM | > 100 µM and 58.1 µM | – | 9.29 µM | – | – | – | > 100 µM and 15.2 µM | – | – | – | – | 3.01 µM | – |
| CCOC(=O)c1cnc2c(cnn2CC)c1NN=C(C)C | > 100 µM | – | – | > 100 µM | > 100 µM | 70 µM | > 100 µM | > 100 µM | – | > 100 µM | 20.6 µM | > 100 µM | 78.2 µM | > 100 µM | > 100 µM | 11.4 µM | 38.9 µM | 38.2 µM | 33.6 µM | – |
